Data set [1] relates to Leishmania major mCherry. As to the kind of experiment: Parasite killing in bone marrow-derived macrophages infected with Leishmania major mCherry (flow cytometry, microscopy). The format is cell-based. Conditions: for macrophage mediated parasite killing: BMDM infected with L. major mCherry, compounds tested individually. As to the method:
The direct microbicidal effect of compounds against the Leishmania parasites in infected macrophages and neutrophils was evaluated.
Bone marrow-derived macrophages (BMDM) were cultured for 7 days, harvested and infected with Leishmania major mCherry for 2 hrs. Then the non-phagocytosed parasites were washed and dihydroquercetin, 3-(2-chloroacetamido) ethyl benzoate or bisabolol were added at different concentrations and incubated at different time points. • Parasites killing was evaluated by flow cytometry and microscopy. • NO production was assessed by Griess reaction from the supernatants.
Background: Flow cytometry measures light scatter and fluorescence of single cells or particles in a stream.

The test system of data set [2] is Neutrophil. As to the kind of experiment: Neutrophil cell viability by flow cytometry with DAPI staining. The format is cell-based. The protocol: Neutrophil cell viability was assessed by flow cytometry with DAPI staining pas 24 hours incubation with dihydroquercetin (5, 15 and 25 μM), 3-(2-chloroacetamido) ethyl benzoate (1, 2 and 4 μM) and bisabolol (0.05, 0.1 and 0.5% w/v).

Data set [3] concerns Leishmania parasites. As to the kind of experiment: Individual evaluation against Leishmania parasites. Conditions: evaluated individually.
The test system of data set [4] is Neutrophils infected with L. major mCherry. Nature of the data set: ROS production by neutrophils infected with L. major mCherry (Luminol). Format: cell-based. Conditions: MOI 1:10, Luminol for 90 min. The protocol:
Neutrophils were isolated by Magnetic-activated cell sorting (MACS) and infected with L. major mCherry at a multiplicity of infection ratio (MOI) of 1:10.
Dihydroquercetin, […] ethyl benzoate or bisabolol at different concentrations were added and stimulated for 24 hours.
Kinetic of ROS production was measured by Luminol for 90 min.

Where two headings read alike, the source gives them in different places.

In the case of `O=C1c2c(O)cc(O)cc2OC(c2ccc(O)c(O)c2)C1O` (stereo not shown) [Dihydroquercetin], in data set [1], the “macrophage mediated parasite killing” value was “no impact on macrophage mediated parasite killing”. Further, the “cytotoxicity (neutrophil cell viability)” value in data set [2] (24 hours incubation, 5, 15 and 25 μM) is “no cytotoxicity”. The “effect against Leishmania parasites” value in data set [3] was “no or limited effect”.
Regarding `CCOC(=O)c1cccc(NC(=O)CCl)c1` [3-(2-chloroacetamido) ethyl benzoate], the “direct microbicidal effect against L. major” value in data set [1] (infected macrophages and neutrophils, different concentrations) was “had a direct microbicidal effect against L. major”. For the same molecule, in data set [2] (24 hours incubation, 1, 2 and 4 μM), the neutrophil viability result is on record as “induced a reduction in neutrophil viability”. The ROS production result in data set [4] is given as “decrease in ROS production”.
For `Cc1c(C)c2c(c(C)c1O)CC[C@@](C)(CCC[C@H](C)CCC[C@H](C)CCCC(C)C)O2` [alpha-tocopherol, (2R)-2,5,7,8-Tetramethyl-2-[(4R,8R)-(4,8,12-trimethyltridecyl)]-6-chromanol], the “effect against Leishmania parasites” value in data set [3] is recorded as “no or limited effect”.
Consider `CC(C)=CCCC(C)(O)C1CC=C(C)CC1` (stereo not shown) [bisabolol, 6-methyl-2-(4-methyl-3-cyclohexen-1-yl)-5-hepten-2-ol], for which the “macrophage mediated parasite killing” value in data set [1] was “no impact on macrophage mediated parasite killing”. For the same molecule, in data set [2], the “cytotoxicity (neutrophil cell viability)” value is recorded as “no cytotoxicity”. The “effect against Leishmania parasites” value in data set [3] is reported as “no or limited effect”.

Values taken from US20200155503A1, “COMPOSITIONS FOR USE FOR TREATING CUTANEOUS LEISHMANIASIS” (BIONOOX SA, priority 2017, published 2020).
